Measurements as given in patent US20180110824A1, “Macrocyclic Modulators of the Ghrelin Receptor” (Ocera Therapeutics, Inc., priority 2016, published 2018).

Tested on: gastric emptying in fasted rats
Test: Gastric emptying in fasted rats (phenol red methylcellulose meal)
Format: in vivo, rat
Details: i.v.
Procedure: To examine the effects of compounds of the invention in a model for gastroparesis, compounds were evaluated for possible effects on gastric emptying in fasted rats.
GHRP-6 and test samples were dissolved in vehicle of 9% HPBCD/0.9% NaCl. Immediately following oral administration of methylcellulose (2%) containing phenol red (0.05%) (2 mL/rat), test substances or vehicle (9% HPBCD/0.9% NaCl) were each administered intravenously (i.v.) at a dosing volume of 5 mL/kg.
Male Wistar rats were provided by LASCO (A Charles River Licensee Corporation, Taiwan). Space allocation for 6 animals was 45×23×15 cm. Animals were housed in APEC® cages and maintained in a controlled temperature (22° C.-24° C.) and humidity (60% -80%) environment with 12 h light, 12 h dark cycles for at least one week in the laboratory prior to being used. Free access to standard lab chow for rats (Lab Diet, Rodent Diet, PMI Nutrition International, USA) and tap water was granted. All aspects of this work including housing, experimentation and disposal of animals were performed in general accordance with the Guide for the Care and Use of Laboratory Animals (National Academy Press, Washington, D.C., 1996).
Test substances were each administered intravenously to a group of 5 O/N-fasted Wistar derived male rats weighing 200±20 g immediately after methylcellulose (2%) containing phenol red (0.05%) was administered orally at 2 mL/animal. The animals were then sacrificed 15 minutes later. The stomach was immediately removed, homogenized in 0.1 N NaOH (5 mL) and centrifuged. Following protein precipitation by 20% trichloroacetic acid (0.5 mL)and re-alkalization of the supernatant with 0.1 N NaOH, total phenol red remaining in the stomach was determined by a colorimetric method at 560 nm. A 30 percent or more (≥30%) increase in gastric emptying, detected as the decrease in phenol red concentration in the stomach relative to the vehicle control group, is considered significant.
• 1. Overnight-fasted rats (male Wistar, ˜200 g, N=5/group) were given a meal of methylcellulose (2%) by intragastric gavage. The meal was labeled with phenol red (0.05%). • 2. […] Animals were sacrificed 15 minutes later; the stomach was immediately removed and homogenized in 0.1 N NaOH and centrifuged. • 4. Total phenol red remaining in the stomach was quantified by a colorimetric method at 560 nm. • 5. A >30% increase in gastric emptying, detected based on the phenol red concentration in comparison to the control group, is considered significant.

In the case of `CC1C(=O)NC(Cc2ccc(F)cc2)C(=O)NCCCc2ccccc2O[C@H](C)CNC(C2CC2)C(=O)N1C` (some centres unmarked) [compound 298], the “gastric emptying of a meal in naïve rat” value (FIGS. 14A and 14B) was “caused significant gastric emptying in a dose-dependent manner” and the “potency superior to metoclopramide in gastric emptying” value (naïve rats, FIG. 14B) was about 100 fold.
